Experimental data as given in US20120101032A1, “NOVEL MACROCYCLIC INHIBITORS OF HEPATITIS C VIRUS REPLICATION” (priority 2010, published 2012).

Key:
hepatitis C replicon = hepatitis C replicon EC50 assay; type: cell-based; conditions: Hepatitis C virus; hepatitis C replicon; read-out: EC50
Text: NS3-NS4 inhibition activity can be determined using known assay methods.

NS3/NS4 complexes = NS3/NS4 complexes (Hepatitis C virus genotype 1a, UniProt P27958); experiment: biochemical; conditions: NS3-NS4 activity; 23° C., pH 7.5, 25 μM NS4A peptide; read-out: IC50
NS3/NS4 complexes, sequence (P27958 1027-1657, one chain of several): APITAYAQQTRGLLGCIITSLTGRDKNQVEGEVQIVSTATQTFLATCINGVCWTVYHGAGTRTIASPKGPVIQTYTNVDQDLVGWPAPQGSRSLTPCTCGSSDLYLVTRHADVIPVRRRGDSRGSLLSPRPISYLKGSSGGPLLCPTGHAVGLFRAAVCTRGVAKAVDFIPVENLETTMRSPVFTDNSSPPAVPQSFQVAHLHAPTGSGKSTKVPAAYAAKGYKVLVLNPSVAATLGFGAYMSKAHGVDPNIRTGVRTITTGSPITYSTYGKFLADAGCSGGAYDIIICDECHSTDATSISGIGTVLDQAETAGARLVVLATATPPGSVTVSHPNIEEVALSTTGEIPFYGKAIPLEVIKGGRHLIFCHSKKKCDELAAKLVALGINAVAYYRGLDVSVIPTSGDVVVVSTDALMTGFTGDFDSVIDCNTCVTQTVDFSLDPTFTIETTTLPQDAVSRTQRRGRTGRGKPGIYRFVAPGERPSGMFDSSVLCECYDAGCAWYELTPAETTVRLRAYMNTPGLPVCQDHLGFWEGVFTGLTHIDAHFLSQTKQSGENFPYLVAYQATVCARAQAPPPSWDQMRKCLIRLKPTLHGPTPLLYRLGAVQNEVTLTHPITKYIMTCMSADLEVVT
Text: NS3-NS4 inhibition activity can be determined using known assay methods. For example, NS3/NS4 complexes may be formed and inhibitory concentrations of test compounds determined as described in U.S. Patent Application Publication Number 2007/0054842 paragraph numbers 1497-1509, which is incorporated herein by reference in its entirety. Similarly, hepatitis C replicon EC50 may be determined using known assay methods such as described in U.S. Patent Application Publication Number 2007/0054842 paragraph numbers 1510-1515, which is incorporated herein by reference in its entirety. Assays may be conducted at ambient temperature (23° C.) in assay buffer containing 50 mM Tris-HCl, pH 7.5, 15% glycerol, 0.6 mM Lauryldimethylamine Oxide (LDAO), 25 μM NS4A peptide, and 10 mM Dithiothreitol (DTT).

Compound | EC50 (hepatitis C replicon) [nM] | IC50 (NS3/NS4 complexes) [nM]
CC(C)n1c(O[C@@H]2C[C@H]3C(=O)N[C@]4(C(=O)NS(=O)(=O)N(C)C)C[C@H]4/C=C\CCCCC[C@H](NC(=O)OC(C)(C)C)C(=O)N3C2)nc2c(-c3nc(-c4ccc(F)c(C(F)(F)F)c4)cs3)cccc21 [Compound 135] | > 100 | < 10
CC(C)n1c(O[C@@H]2C[C@H]3C(=O)N[C@]4(C(=O)NS(=O)(=O)N(C)C)C[C@H]4/C=C\CCCCC[C@H](NC(=O)OC(C)(C)C)C(=O)N3C2)nc2c(-c3nc(-c4ccc(OC(F)(F)F)cc4)cs3)cccc21 [Compound 136] | > 100 | < 10
CC(C)n1c(O[C@@H]2C[C@H]3C(=O)N[C@]4(C(=O)NS(=O)(=O)N(C)C)C[C@H]4/C=C\CCCCC[C@H](NC(=O)OC(C)(C)C)C(=O)N3C2)nc2c(-c3nc(-c4ccc(Br)cc4)cs3)cccc21 [Compound 137] | > 100 | < 10
CC(C)n1c(O[C@@H]2C[C@H]3C(=O)N[C@]4(C(=O)NS(=O)(=O)N(C)C)C[C@H]4/C=C\CCCCC[C@H](NC(=O)OC(C)(C)C)C(=O)N3C2)nc2c(-c3nc(-c4ccc(Cl)c(Cl)c4)cs3)cccc21 [Compound 138] | > 100 | < 10
CC(C)n1c(O[C@@H]2C[C@H]3C(=O)N[C@]4(C(=O)NS(=O)(=O)N(C)C)C[C@H]4/C=C\CCCCC[C@H](NC(=O)OC(C)(C)C)C(=O)N3C2)nc2c(-c3nc(-c4ccc(F)cc4F)cs3)cccc21 [Compound 139] | 10 to 100 | < 10
CC(C)n1c(O[C@@H]2C[C@H]3C(=O)N[C@]4(C(=O)NS(=O)(=O)N(C)C)C[C@H]4/C=C\CCCCC[C@H](NC(=O)OC(C)(C)C)C(=O)N3C2)nc2c(-c3nc(-c4ccc(F)c(F)c4)cs3)cccc21 [Compound 140] | < 10 | < 10
CC(C)n1c(O[C@@H]2C[C@H]3C(=O)N[C@]4(C(=O)NS(=O)(=O)N(C)C)C[C@H]4/C=C\CCCCC[C@H](NC(=O)OC(C)(C)C)C(=O)N3C2)nc2c(-c3nc(-c4ccc(C(F)(F)F)cc4)cs3)cccc21 [Compound 141] | > 100 | < 10
CC(C)n1c(O[C@@H]2C[C@H]3C(=O)N[C@]4(C(=O)NS(=O)(=O)N(C)C)C[C@H]4/C=C\CCCCC[C@H](NC(=O)OC(C)(C)C)C(=O)N3C2)nc2c(-c3nc(-c4ccc5c(c4)OCCO5)cs3)cccc21 [Compound 142] | 10 to 100 | < 10
CC(C)n1c(O[C@@H]2C[C@H]3C(=O)N[C@]4(C(=O)NS(=O)(=O)N(C)C)C[C@H]4/C=C\CCCCC[C@H](NC(=O)OC(C)(C)C)C(=O)N3C2)nc2c(-c3nc(-c4ccc(C(C)(C)C)cc4)cs3)cccc21 [Compound 143] | 10 to 100 | < 10
Cc1cccc(Cc2csc(-c3cccc4c3nc(O[C@@H]3C[C@H]5C(=O)N[C@]6(C(=O)NS(=O)(=O)N(C)C)C[C@H]6/C=C\CCCCC[C@H](NC(=O)OC(C)(C)C)C(=O)N5C3)n4C(C)C)n2)c1 [Compound 144] | < 10 | < 10
Cc1ccc(Cc2csc(-c3cccc4c3nc(O[C@@H]3C[C@H]5C(=O)N[C@]6(C(=O)NS(=O)(=O)N(C)C)C[C@H]6/C=C\CCCCC[C@H](NC(=O)OC(C)(C)C)C(=O)N5C3)n4C(C)C)n2)cc1 [Compound 146] | < 10 | < 10
COc1ccccc1Cc1csc(-c2cccc3c2nc(O[C@@H]2C[C@H]4C(=O)N[C@]5(C(=O)NS(=O)(=O)N(C)C)C[C@H]5/C=C\CCCCC[C@H](NC(=O)OC(C)(C)C)C(=O)N4C2)n3C(C)C)n1 [Compound 147] | < 10 | < 10
CC(C)c1ccc(Cc2csc(-c3cccc4c3nc(O[C@@H]3C[C@H]5C(=O)N[C@]6(C(=O)NS(=O)(=O)N(C)C)C[C@H]6/C=C\CCCCC[C@H](NC(=O)OC(C)(C)C)C(=O)N5C3)n4C(C)C)n2)cc1 [Compound 148] | 10 to 100 | < 10
CC(C)n1c(O[C@@H]2C[C@H]3C(=O)N[C@]4(C(=O)NS(=O)(=O)N(C)C)C[C@H]4/C=C\CCCCC[C@H](NC(=O)OC(C)(C)C)C(=O)N3C2)nc2c(-c3nc(Cc4cccc(C(F)(F)F)c4)cs3)cccc21 [Compound 149] | 10 to 100 | < 10
CC(C)n1c(O[C@@H]2C[C@H]3C(=O)N[C@]4(C(=O)NS(=O)(=O)N(C)C)C[C@H]4/C=C\CCCCC[C@H](NC(=O)OC(C)(C)C)C(=O)N3C2)nc2c(-c3nc(Cc4cccc(OC(F)(F)F)c4)cs3)cccc21 [Compound 150] | 10 to 100 | < 10
CC(C)n1c(O[C@@H]2C[C@H]3C(=O)N[C@]4(C(=O)NS(=O)(=O)N(C)C)C[C@H]4/C=C\CCCCC[C@H](NC(=O)OC(C)(C)C)C(=O)N3C2)nc2c(-c3nc(Cc4ccc(Cl)cc4)cs3)cccc21 [Compound 151] | < 10 | < 10
COc1cccc(Cc2csc(-c3cccc4c3nc(O[C@@H]3C[C@H]5C(=O)N[C@]6(C(=O)NS(=O)(=O)N(C)C)C[C@H]6/C=C\CCCCC[C@H](NC(=O)OC(C)(C)C)C(=O)N5C3)n4C(C)C)n2)c1 [Compound 152] | < 10 | < 10
CC(C)n1c(O[C@@H]2C[C@H]3C(=O)N[C@]4(C(=O)NS(=O)(=O)N(C)C)C[C@H]4/C=C\CCCCC[C@H](NC(=O)OC(C)(C)C)C(=O)N3C2)nc2c(-c3nc(Cc4cccc(Br)c4)cs3)cccc21 [Compound 153] | 10 to 100 | < 10
CC(C)n1c(O[C@@H]2C[C@H]3C(=O)N[C@]4(C(=O)NS(=O)(=O)N(C)C)C[C@H]4/C=C\CCCCC[C@H](NC(=O)OC(C)(C)C)C(=O)N3C2)nc2c(-c3nc(Cc4ccc(-c5ccccc5)cc4)cs3)cccc21 [Compound 154] | 10 to 100 | < 10
CC(C)n1c(O[C@@H]2C[C@H]3C(=O)N[C@]4(C(=O)NS(=O)(=O)N(C)C)C[C@H]4/C=C\CCCCC[C@H](NC(=O)OC(C)(C)C)C(=O)N3C2)nc2c(-c3nc(Cc4ccc(OC(F)(F)F)cc4)cs3)cccc21 [Compound 155] | 10 to 100 | < 10
CC(C)n1c(O[C@@H]2C[C@H]3C(=O)N[C@]4(C(=O)NS(=O)(=O)N(C)C)C[C@H]4/C=C\CCCCC[C@H](NC(=O)OC(C)(C)C)C(=O)N3C2)nc2c(-c3nc(Cc4ccccc4F)cs3)cccc21 [Compound 156] | < 10 | < 10
COc1ccc(Cc2csc(-c3cccc4c3nc(O[C@@H]3C[C@H]5C(=O)N[C@]6(C(=O)NS(=O)(=O)N(C)C)C[C@H]6/C=C\CCCCC[C@H](NC(=O)OC(C)(C)C)C(=O)N5C3)n4C(C)C)n2)cc1 [Compound 157] | < 10 | < 10
CC(C)n1c(O[C@@H]2C[C@H]3C(=O)N[C@]4(C(=O)NS(=O)(=O)N(C)C)C[C@H]4/C=C\CCCCC[C@H](NC(=O)OC(C)(C)C)C(=O)N3C2)nc2c(-c3csc(N4CCCC4)n3)cccc21 [Compound 158] | < 10 | < 10
CC(C)n1c(O[C@@H]2C[C@H]3C(=O)N[C@]4(C(=O)NS(=O)(=O)N(C)C)C[C@H]4/C=C\CCCCC[C@H](NC(=O)OC(C)(C)C)C(=O)N3C2)nc2c(-c3cnccn3)cccc21 [Compound 159] | < 10 | < 10
CC(C)n1c(O[C@@H]2C[C@H]3C(=O)N[C@]4(C(=O)NS(=O)(=O)N(C)C)C[C@H]4/C=C\CCCCC[C@H](NC(=O)OC(C)(C)C)C(=O)N3C2)nc2c(-c3csc(N4CCN(C)CC4)n3)cccc21 [Compound 160] | < 10 | < 10
CC(C)n1c(O[C@@H]2C[C@H]3C(=O)N[C@]4(C(=O)NS(=O)(=O)N(C)C)C[C@H]4/C=C\CCCCC[C@H](NC(=O)OC(C)(C)C)C(=O)N3C2)nc2c(-c3cncnc3)cccc21 [Compound 161] | < 10 | < 10
